# Columns and labels:
# Experiment in all cases: Kinase selectivity profiling
# Type in all cases: biochemical
# GCK = GCK (Homo sapiens, UniProt Q12851); conditions: 110-kinase panel
# Excerpt: (§1) Compound 28c was profiled against a panel of 110 kinases at the International Centre for Protein Kinase Profiling, Division of Signal Transduction Therapy, University of Dundee. Compound 40f was profiled against a panel of 50 kinases (MRC-PPU Express Screen) also at the International Centre for Protein Kinase Profiling.
# BRSK1 = BRSK1 (Homo sapiens, UniProt Q8TDC3); conditions: 110-kinase panel
# Excerpt: as §1
# MNK2 = MNK2 (Homo sapiens, UniProt Q9HBH9); conditions: 110-kinase panel
# Excerpt: as §1
# EPH-B3 = EPH-B3 (Homo sapiens, UniProt P54753); conditions: 110-kinase panel, read-out: % activity remaining, EPH2B3
# Excerpt: as §1
# MNK2, sequence (Q9HBH9 whole entry): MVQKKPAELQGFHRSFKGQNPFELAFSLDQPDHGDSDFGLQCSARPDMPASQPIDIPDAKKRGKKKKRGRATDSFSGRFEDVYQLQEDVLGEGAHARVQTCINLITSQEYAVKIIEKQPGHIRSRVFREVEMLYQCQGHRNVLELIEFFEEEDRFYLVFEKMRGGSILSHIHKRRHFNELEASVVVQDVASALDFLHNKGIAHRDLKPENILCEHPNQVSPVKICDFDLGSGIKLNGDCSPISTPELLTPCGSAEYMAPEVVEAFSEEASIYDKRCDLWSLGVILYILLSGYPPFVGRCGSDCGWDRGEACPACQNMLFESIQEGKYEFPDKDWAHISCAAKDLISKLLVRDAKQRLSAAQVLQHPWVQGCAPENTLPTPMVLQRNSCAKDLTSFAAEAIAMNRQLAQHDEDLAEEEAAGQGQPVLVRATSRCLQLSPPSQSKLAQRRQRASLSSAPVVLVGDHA
# EPH-B3, sequence (P54753 34-998): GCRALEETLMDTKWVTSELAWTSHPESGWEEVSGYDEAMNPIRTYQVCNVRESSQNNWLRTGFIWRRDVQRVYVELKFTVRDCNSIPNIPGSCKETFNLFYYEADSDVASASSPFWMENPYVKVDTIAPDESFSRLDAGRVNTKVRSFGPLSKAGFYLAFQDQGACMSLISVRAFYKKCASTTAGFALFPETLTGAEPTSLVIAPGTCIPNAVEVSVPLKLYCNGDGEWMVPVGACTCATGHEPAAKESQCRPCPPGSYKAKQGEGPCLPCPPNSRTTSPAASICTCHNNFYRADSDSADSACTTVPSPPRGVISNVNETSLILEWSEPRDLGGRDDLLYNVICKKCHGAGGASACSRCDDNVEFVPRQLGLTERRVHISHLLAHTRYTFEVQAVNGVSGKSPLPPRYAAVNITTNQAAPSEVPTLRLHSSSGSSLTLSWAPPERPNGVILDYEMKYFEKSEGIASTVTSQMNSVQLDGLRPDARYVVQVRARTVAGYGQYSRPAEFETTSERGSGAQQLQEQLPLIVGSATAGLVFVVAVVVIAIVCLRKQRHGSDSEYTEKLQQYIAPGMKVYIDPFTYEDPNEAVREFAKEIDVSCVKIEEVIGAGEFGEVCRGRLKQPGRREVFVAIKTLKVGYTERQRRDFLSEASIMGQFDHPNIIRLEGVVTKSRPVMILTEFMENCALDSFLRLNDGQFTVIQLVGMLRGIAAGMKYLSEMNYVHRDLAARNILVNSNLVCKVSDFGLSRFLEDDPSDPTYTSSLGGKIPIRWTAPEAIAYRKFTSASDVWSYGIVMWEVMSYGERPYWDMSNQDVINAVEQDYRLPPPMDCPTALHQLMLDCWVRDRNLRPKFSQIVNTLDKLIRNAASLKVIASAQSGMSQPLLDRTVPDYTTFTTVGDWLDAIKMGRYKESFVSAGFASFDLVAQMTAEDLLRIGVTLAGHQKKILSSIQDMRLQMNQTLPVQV
# GCK, sequence (Q12851 whole entry): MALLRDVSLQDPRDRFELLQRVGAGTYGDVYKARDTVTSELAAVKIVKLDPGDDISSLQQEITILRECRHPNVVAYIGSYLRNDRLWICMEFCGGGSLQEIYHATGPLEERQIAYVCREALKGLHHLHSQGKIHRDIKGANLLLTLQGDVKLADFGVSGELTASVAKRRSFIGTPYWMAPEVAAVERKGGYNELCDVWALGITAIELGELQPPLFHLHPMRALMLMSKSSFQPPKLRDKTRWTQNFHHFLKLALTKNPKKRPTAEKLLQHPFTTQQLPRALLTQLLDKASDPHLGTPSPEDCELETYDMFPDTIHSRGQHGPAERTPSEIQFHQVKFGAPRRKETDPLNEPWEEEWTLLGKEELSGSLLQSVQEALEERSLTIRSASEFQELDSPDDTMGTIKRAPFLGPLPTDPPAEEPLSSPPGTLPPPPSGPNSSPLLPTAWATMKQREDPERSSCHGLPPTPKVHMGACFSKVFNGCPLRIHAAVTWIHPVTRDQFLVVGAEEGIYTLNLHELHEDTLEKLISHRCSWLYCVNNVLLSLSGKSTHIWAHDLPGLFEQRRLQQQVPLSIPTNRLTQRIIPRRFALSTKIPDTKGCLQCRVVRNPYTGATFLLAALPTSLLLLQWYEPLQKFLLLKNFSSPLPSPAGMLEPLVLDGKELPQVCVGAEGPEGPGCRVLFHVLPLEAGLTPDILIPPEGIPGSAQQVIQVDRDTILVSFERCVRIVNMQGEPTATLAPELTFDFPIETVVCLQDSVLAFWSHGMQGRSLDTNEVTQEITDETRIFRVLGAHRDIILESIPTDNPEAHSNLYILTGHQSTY
# BRSK1, sequence (Q8TDC3 whole entry): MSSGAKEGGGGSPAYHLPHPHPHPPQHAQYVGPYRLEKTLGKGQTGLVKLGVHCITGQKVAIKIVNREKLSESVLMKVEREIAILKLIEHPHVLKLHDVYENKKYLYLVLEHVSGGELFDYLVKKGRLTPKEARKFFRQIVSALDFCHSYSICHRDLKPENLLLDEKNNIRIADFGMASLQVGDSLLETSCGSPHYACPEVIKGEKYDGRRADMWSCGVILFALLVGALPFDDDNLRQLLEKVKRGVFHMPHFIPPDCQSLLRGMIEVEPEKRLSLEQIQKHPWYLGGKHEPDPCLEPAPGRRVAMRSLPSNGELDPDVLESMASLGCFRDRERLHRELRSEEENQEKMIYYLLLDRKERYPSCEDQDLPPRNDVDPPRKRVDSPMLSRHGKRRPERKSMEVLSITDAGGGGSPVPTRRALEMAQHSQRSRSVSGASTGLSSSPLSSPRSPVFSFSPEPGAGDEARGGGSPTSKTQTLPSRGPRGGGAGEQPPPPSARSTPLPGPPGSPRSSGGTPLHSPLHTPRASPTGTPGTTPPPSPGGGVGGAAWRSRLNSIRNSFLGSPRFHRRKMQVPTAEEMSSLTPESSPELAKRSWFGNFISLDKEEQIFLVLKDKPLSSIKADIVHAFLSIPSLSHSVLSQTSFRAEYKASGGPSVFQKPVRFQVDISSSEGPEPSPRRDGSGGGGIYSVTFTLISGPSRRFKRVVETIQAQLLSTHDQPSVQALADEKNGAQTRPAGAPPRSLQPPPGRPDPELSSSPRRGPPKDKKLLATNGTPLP
smiles,measurement,setting,value
"Cc1nn(C)cc1-c1nc2c(Oc3ccc(C(=O)Nc4ccccc4)cc3)c(Cl)cnc2[nH]1 [compound 28c, 4-((6-Chloro-2-(1,3-dimethyl-1H-pyrazol-4-yl)-3H-imidazo[4,5-b]pyridin-7-yl)oxy)-N-phenylbenzamide]",remaining activity at 1 µM,GCK,98%
same,remaining activity at 1 µM,BRSK1,109%
same,remaining activity at 1 µM,MNK2,109%
same,remaining activity at 1 µM,EPH-B3,106%
